Experimental data reported in EP0383941B1, “ULTRAVIOLET ABSORBING COSMETIC” (priority 1988, dated 1990).
In brackets after ≈: the same amount, converted by molar mass.

Experiments:
[1] = Measurement of water resistance (hot water treatment of aqueous suspension, extinction coefficient and TG-DTA); type: physicochemical; conditions: for Water resisting stability: 10 % by weight aqueous suspension, 80°C for 2 hours, change of molecular extinction coefficient in λmax; for Change of TG-DTA: before and after hot water treatment (80°C, 2 hours)
Procedure: Fifty milliliters each of aqueous suspensions containing 10 % by weight of a cyclic imino ester and a comparative sample, respectively was prepared, and allowed to stand in a constant temperature bath of 80°C for 2 hours.
Then, 50 ml of isopropyl alcohol was added thereto, and the water and the solvent were removed using a rotary evaporator, and the residue was taken out.
This residue was measured for molecular extinction coefficient in λmax according to a similar manner to Example 1, and its change was used as a measure of water resistance. [formula] Further, the samples before and after hot water treatment were measured for TG-DTA, and its change was examined.

[2] = Measurement of ultraviolet ray-absorbing ability (spectrophotometer); type: physicochemical; conditions: 1,1,2,2-tetrachloroethane, 5x10⁻⁴ g/100 ml, optical path length 1 cm; for E 1%, 1cm: at λmax
Procedure: There were measured ultraviolet ray-absorbing ability of the cyclic imino esters used in accordance with the invention and a commercially available known ultraviolet absorber (4-t-butyl-4'-methoxy-dibenzoylmethane).
The measurement was carried out using 1,1,2,2-tetrachloroethane as a solvent and Hitachi 330 type spectrophotometer under the conditions of an ultraviolet absorber concentration of 5x10⁻⁴ g/100 ml and an optical path length of 1 cm.

skin [3] = test: Contact photosensitization (Adjuvant-Strip method); type: in vivo, Hartley white guinea pigs; conditions: for Contact photosensitization (result in words): Adjuvant-Strip method
Procedure: (1) Hartley white guinea pigs weighing 370 to 420 g were used. (2) The fur at the cervical part of guinea pigs was cut by an eletric hair clipper, and the part was further shaved with an electric razor. (3) A section of 2 x 4 cm was set at the cervical part, and 0.1 ml portions of Freund's complete adjuvant w/o emulsified with sterilized distilled water were intradermally injected at the four corners. (4) The skin of the section of 2 x 4 cm was subjected to stripping with cellophane tape to cause light erythema. […] (6) After the application, 6 lamps in total, namely 3 sunlamps (Toshiba FL-40SE30) and 3 black lights (Toshiba FL-40SBLB) were arranged in parallel, 70 minutes irradiation was carried out at a distance of 10 cm from the light sources. Total energy of the irradiation at this time was 12.0 J/cm². (7) The procedures (4), (5) and (6) were repeated 5 times every other day. […] (9) 24 Hours after the epilation, 4 sections each of 1.5 cm x 1.5 cm were set in two rows using the medium line as a symmetry axis. (10) This site was coated with the test substance and irradiated for 70 minutes at a distance of 10 cm from 6 black lights. […] (11) Judgement was made 24 and 48 hours after the irradiation according to the following criterion: [Judgement criterion]

Microorganisms = test: Mutagenicity test using microorganisms; type: cell-based; conditions: test on mutagenicity using microorganisms
Procedure: This experiment was carried out based on "About Test on Mutagenicity Using Microorganisms", a notification of the Director of the Standard Bureau, the Ministry of Labor, Japan dated May 18, 1985.

skin [4] = test: Allergic contact dermatitis test (Guinea Pig Maximization Test); set-up: species or system white female guinea pigs; conditions: in vivo
Procedure: Method: This experiment was carried out as follows based on "Guinea Pig Maximization Test" (Magnusson, B. & Klingman, A. M: Usefulness of guinea pig tests for detection of contact sensitizers, In Advances in Modern Toxicology. Vol 4, pp 551-560 Hemisphere Publishing Co., Washington & London, 1977) 1) The fur on the scapula of white female guinea pigs weighing 300 to 500 g was cut in an area of 4 x 6 cm. 2) Each sample was intradermally injected into a guinea pig at the positions (1), (2) and (3) shown in Figure 1 with • (1) 0.1 ml of Freund's complete adjuvant alone; • (2) 0.1 ml of test substance alone; or • (3) sample w/o emulsified with 0.1 ml of Freund's complete adjuvant 3) The fur at the sites was cut one week after the intradermal injection, and a […] test substance, 10 % sodium lauryl sulfate (vaseline base), was applied thereon. 4) Vaseline containing 25 % by weight of the test substance was spread on a filter paper of 2 x 4 cm and occlusive pasting was conducted for 48 hours. 5) The fur at the side of the body of a guinea pig shown at (4) in Figure 1 was cut in an area of 5 x 5 cm two weeks after the occlusive pasting. 6) The test substance was applied onto a filter paper of 2 x 2 cm, and occlusive pasting was conducted for 24 hours. 7) Measurement was carried out according to the following criterion: […]

skin [5] = test: Primary irritation to the skin; type: in vivo, white rabbits; conditions: for Formation of erythema or eschar: animals judged +: grade + (Well defined erythema)
Procedure: This experiment was carried out according to the following method. • 1) Eight white rabbits (weighing 2.0 to 3.0 kg) whose fur on the back was cut are grouped into two groups each consisting of 4 animals. Animals of one group (blank) were fixed as they were in braces and those of the other group were fixed in braces after excoriation at the site to be tested. • 2) Vaseline base containing 25 % by weight of a test substance was applied onto a lint cloth, and the resulting lint cloth was stuck on the surface of skin. • 3) Whole body of the rabbit was wrapped with moisture-proof rubber for dental use to prevent movement of the stuck lint cloth and at the same time evaporation of volatile substance. • 4) Twenty-four hours thereafter the lint cloth was removed and the test site was observed. Second and third observations are made 48 and 72 hours thereafter, respectively. The average of evaluation after 24 and 72 hours was calculated as a final evaluation point. • 5) Evaluation was made by independently judging formation of erythema and eschar, and edema, specifically according to the following criteria.

[6] = Measurement of solubility in water, alcohols and oily cosmetic bases; type: physicochemical; conditions: 15°C
[7] = 3 = Erythema in middle to heavy degree, guinea pigs
[8] = Vaseline base containing 25 % by weight, 4 rabbits
[9] = grade +++ (Severe erythema to slight formation of eschar), Vaseline base containing 25 % by weight, 4 rabbits

O=c1oc(-c2ccc3cc(-c4nc5ccccc5c(=O)o4)ccc3c2)nc2ccccc12
Water resisting stability [1]: 96.7%

O=c1oc(-c2ccc(-c3nc4ccccc4c(=O)o3)cc2)nc2ccccc12 [A, 2,2'-p-phenylenebis(3,1-benzoxazin-4-one)]
Water resisting stability [1]: 96.9% | Change of TG-DTA [1]: no change | λmax (maximum absorption wavelength) [2]: 350 nm | λs (absorption intiation wavelength) [2]: 385 nm | E 1%, 1cm [2]: 1270 | Contact photosensitization (result in words) (skin [3]; guinea pigs): not observed at all | Formation of erythema, judgement 0 (animals) (skin [3]; guinea pig, in vivo): 10/10 | Formation of erythema, judgement 1 (animals) (skin [3]; guinea pig, in vivo): 0/10 | Formation of erythema, judgement 2 (animals) (skin [3]; guinea pig, in vivo): 0/10 | Formation of erythema, judgement 3 (animals) (skin [3]; guinea pig, in vivo): 0/10 | Mutagenicity (Microorganisms): No mutagenicity was observed | Judgement 0 (animals) (skin [4]): 4/4 | Judgement 1 (animals) (skin [4]): 0/4 | Judgement 2 (animals) (skin [4]): 0/4 | Formation of edema (animals) (skin [5]; rabbit, in vivo): 0/4 | Formation of erythema or eschar: animals judged ++ (skin [5]; rabbit, in vivo): 0/4 | Formation of erythema or eschar: animals judged +++ (skin [5]; rabbit, in vivo): 0/4 | Formation of erythema or eschar: animals judged - (skin [5]; rabbit, in vivo): 4/4 | Formation of erythema or eschar: animals judged ± (skin [5]; rabbit, in vivo): 0/4

O=c1oc(-c2ccc(-c3ccc(-c4nc5ccccc5c(=O)o4)cc3)cc2)nc2ccccc12
Water resisting stability [1]: 97.6% | λmax (maximum absorption wavelength) [2]: 348 nm | λs (absorption intiation wavelength) [2]: 395 nm | E 1%, 1cm [2]: 1300

COc1ccc(C(=O)CC(=O)c2ccc(C(C)(C)C)cc2)cc1 [4-t-butyl-4'-methoxydibenzoylmethane, 4-t-butyl-4'-methoxy-dibenzoylmethane]
Water resisting stability [1]: 89.4% | Change of TG-DTA [1]: genera-tion of subpeak | λmax (maximum absorption wavelength) [2]: 360 nm | λs (absorption intiation wavelength) [2]: 400 nm | E 1%, 1cm [2]: 1040 | solubility ([6]; Water): 0.0002 mg/mL (≈ 0.000644 mM) | solubility ([6]; organic solvent or mixture, Castor oil): 96 mg/mL (≈ 309 mM) | solubility ([6]; organic solvent or mixture, Ethanol): 16 mg/mL (≈ 51.5 mM) | solubility ([6]; organic solvent or mixture, Glycerin): 2.5 mg/mL (≈ 8.05 mM) | solubility ([6]; organic solvent or mixture, Isopropyl myristate): 53 mg/mL (≈ 171 mM) | solubility ([6]; organic solvent or mixture, Light liquid paraffin): 8.5 mg/mL (≈ 27.4 mM) | solubility ([6]; organic solvent or mixture, Olive oil): 19 mg/mL (≈ 61.2 mM)

O=c1oc(-c2ccc(-c3ccc(-c4nc5ccccc5c(=O)o4)cc3)cc2)nc2ccccc12 [B, 2,2'-(4,4'-diphenylene)bis(3,1-benzoxazin-4-one)]
Formation of erythema, judgement 3 (animals) (skin [3]; [7]): Same as left | Contact photosensitization (result in words) (skin [3]; guinea pigs): not observed at all | Mutagenicity (Microorganisms): No mutagenicity was observed | Formation of edema (animals) (skin [5]; [8]): 0/4 | Formation of erythema or eschar: animals judged + (skin [5]; [8]): Same as left | Formation of erythema or eschar: animals judged +++ (skin [5]; [9]): Same as left

COc1ccc(C(=O)CC(=O)c2ccccc2C(=O)O)cc1 [4-methoxy-2'-sodium carboxylate-dibenzoylmethane, reference compound]
Water resisting stability [1]: 52.0%

O=c1oc(-c2ccc3cc(-c4nc5ccccc5c(=O)o4)ccc3c2)nc2ccccc12 [C, 2,2'-(2,6-naphthylene)bis(3,1-benzoxazin-4-one)]
λmax (maximum absorption wavelength) [2]: 354 nm | λs (absorption intiation wavelength) [2]: 400 nm | E 1%, 1cm [2]: 1070 | Formation of erythema, judgement 0 (animals) (skin [3]; 0 = No erythema, 24 and 48 hours after irradiation, 10.2 J/cm², guinea pigs): 9/10 | Formation of erythema, judgement 1 (animals) (skin [3]; 1 = Erythema in very light degree, guinea pigs): 1/10 | Formation of erythema, judgement 3 (animals) (skin [3]; [7]): Same as left | Contact photosensitization (result in words) (skin [3]; guinea pigs): Very slight contact photosensitization was observed | Mutagenicity (Microorganisms): No mutagenicity was observed | Formation of edema (animals) (skin [5]; [8]): 0/4 | Formation of erythema or eschar: animals judged + (skin [5]; [8]): Same as left | Formation of erythema or eschar: animals judged +++ (skin [5]; [9]): Same as left
